15 compounds from ChEMBL document CHEMBL1134418, “Synthesis of tetrocarcin derivatives with specific inhibitory activity towards Bcl-2 functions” (2001) can be followed below.

In brackets after ≈: the same amount, converted by molar mass. Where only a bound is given, the exact number is not on record here.

Broadly, the MIC is the least concentration at which growth counts as inhibited. A low value points to a more susceptible organism.

In assay [1] the test system is Bacillus subtilis. Briefly: Antibacterial activity was evaluated against Bacillus subtilis. The class given is functional.
The target of assay [2] is Apoptosis regulator Bcl-2 (Homo sapiens) (UniProt P10415). The assay can be described thus: Effect on DEVD cleavage by DEVDase assay with anti-Fas antibody treatment using Bcl-2 overexpressing HeLa cells; 3 fold activation concentration (AC3). The class given is functional, cell-based.
Sequence of Apoptosis regulator Bcl-2 (Homo sapiens) (P10415 whole entry): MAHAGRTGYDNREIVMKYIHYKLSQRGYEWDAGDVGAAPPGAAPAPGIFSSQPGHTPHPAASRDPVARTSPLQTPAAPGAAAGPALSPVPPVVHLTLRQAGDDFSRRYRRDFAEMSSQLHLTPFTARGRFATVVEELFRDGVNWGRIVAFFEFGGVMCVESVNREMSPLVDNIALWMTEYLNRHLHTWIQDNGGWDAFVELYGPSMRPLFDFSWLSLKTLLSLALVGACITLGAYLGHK
The target is the same in assay [3]. The assay can be described thus: Effect on DEVD cleavage by DEVDase assay without anti-Fas antibody using Bcl-2 overexpressing HeLa cells; 3 fold activation concentration (AC3). The assay is classed as functional, cell-based.
In assay [4] the test system is HeLa. The assay can be described thus: Evaluated for HeLa cell viability with anti-Fas antibody treatment by XTT assay; 3 fold activation concentration (AC3). The class given is functional, Homo sapiens. On the technique in general: Tetrazolium dyes change colour on reduction, which living cells bring about.
The test system of assay [5] is HeLa. The assay can be described thus: Evaluated for HeLa cell viability without anti-Fas antibody treatment by XTT assay; 3 fold activation concentration (AC3). The assay is classed as functional, Homo sapiens.

`COC(=O)NC1[C@H](C)O[C@@H](O[C@H]2C/C=C(\C)[C@@H]3C=C[C@@H]4[C@@H](O[Si](C)(C)C(C)(C)C)[C@@H](C)C[C@H](C)[C@H]4[C@]3(C)/C(O)=C3\C(=O)O[C@]4(CC(C=O)=C[C@H](O)[C@H]4/C=C\2C)C3=O)CC1(C)[N+](=O)[O-]` (stereo not given in full) displayed an MIC in assay [1] above 50 µg/mL. In addition, the AC3 in assay [2] came out at 1.3 µM; in assay [3], 1.8 µM; in assay [4], 2 µM; in assay [5], 2 µM.

Take `CC[Si](CC)(CC)OO[C@H]1C=CC(O[C@@H]2[C@H]3C=C[C@H]4/C(C)=C/C[C@H](O[C@H]5CC(C)([N+](=O)[O-])C(NC(=O)OC)[C@H](C)O5)/C(C)=C\[C@@H]5[C@@H](OC(C)=O)C=C(C=O)C[C@]56OC(O)=C(C(=O)[C@@]4(C)[C@@H]3[C@@H](C)C[C@@H]2C)C6=O)O[C@H]1C` (stereo not given in full): the minimum inhibitory concentration (MIC) in assay [1] was above 50 µg/mL. Also, the AC3 in assay [2] was 4.9 µM; in assay [3] it was above 10 µM; in assay [4], 4.3 µM; in assay [5], above 10 µM.

Consider `COC(=O)NC1[C@H](C)O[C@@H](O[C@H]2C/C=C(\C)[C@@H]3C=C[C@@H]4[C@@H](O)[C@@H](C)C[C@H](C)[C@H]4[C@]3(C)/C(O)=C3\C(=O)O[C@]4(CC(C=O)=C[C@H](O[Si](C)(C)C(C)(C)C)[C@H]4/C=C\2C)C3=O)CC1(C)[N+](=O)[O-]` (stereo not given in full), for which the MIC in assay [1] is above 50 µg/mL. Besides, the AC3 in assay [2], in assay [3], in assay [4] and in assay [5] was above 10 µM throughout.

In turn, `COC(=O)NC1[C@H](C)O[C@@H](O[C@H]2C/C=C(\C)[C@@H]3C=C[C@@H]4[C@@H](O)[C@@H](C)C[C@H](C)[C@H]4[C@]3(C)/C(O)=C3\C(=O)O[C@]4(CC(C=O)=C[C@H](OC(C)=O)[C@H]4/C=C\2C)C3=O)CC1(C)[N+](=O)[O-]` (stereo not given in full) had an MIC in assay [1] above 50 µg/mL. Moreover, the AC3 was 8.4 µM in assay [2], above 10 µM in assay [3], above 10 µM in assay [4] and above 10 µM in assay [5].

Take `COC(=O)NC1[C@H](C)O[C@@H](O[C@H]2C/C=C(\C)[C@@H]3C=C[C@@H]4[C@@H](O[C@@H]5CC(OC(C)=O)C(OC(C)=O)[C@H](C)O5)[C@@H](C)C[C@H](C)[C@H]4[C@]3(C)/C(O)=C3\C(=O)O[C@]4(CC(C=O)=C[C@H](OC(C)=O)[C@H]4/C=C\2C)C3=O)CC1(C)[N+](=O)[O-]` (stereo not given in full): in assay [1], inhibition of growth (MIC) required 16.7 µg/mL (≈ 16.1 µM). Further, the AC3 in assay [2] is 2.1 µM; in assay [3], above 10 µM; in assay [4], 1.1 µM; in assay [5] it was above 10 µM.

For the compound `COC(=O)NC1[C@H](C)O[C@@H](O[C@H]2C/C=C(\C)[C@@H]3C=C[C@@H]4[C@@H](OC5C=C[C@H](O)[C@H](C)O5)[C@@H](C)C[C@H](C)[C@H]4[C@]3(C)/C(O)=C3\C(=O)O[C@]4(CC(C=O)=C[C@H](OC(C)=O)[C@H]4/C=C\2C)C3=O)CC1(C)[N+](=O)[O-]` (stereo not given in full), in assay [1], the MIC was above 50 µg/mL. For the same compound, the AC3 is 3.6 µM in assay [2], above 10 µM in assay [3], 3.7 µM in assay [4] and above 10 µM in assay [5].

In the case of `COC(=O)NC1[C@H](C)O[C@@H](O[C@H]2C/C=C(\C)[C@@H]3C=C[C@@H]4[C@@H](OC5C[C@H](O[C@@H]6CCC(OC7C[C@H](O)[C@@H](OC8CC[C@@H](O)C(C)O8)C(C)O7)[C@H](C)O6)[C@@H](OC(C)=O)C(C)O5)[C@@H](C)C[C@H](C)[C@H]4[C@]3(C)/C(O)=C3\C(=O)O[C@]4(CC(C=O)=CC(O)[C@H]4/C=C\2C)C3=O)CC1(C)[N+](=O)[O-]` (stereo not given in full), the MIC in assay [1] was below 0.049 µg/mL. In addition, the AC3 in assay [2] came to 2.2 µM; in assay [3], 7.7 µM; in assay [4] it was 1.4 µM; in assay [5], 4 µM.

In assay [1], `COC(=O)NC1[C@H](C)O[C@@H](O[C@H]2C/C=C(\C)[C@@H]3C=C[C@@H]4[C@@H](OC5(C)O[C@@H]6OC(COC(C)=O)[C@@H](OC(C)=O)C(OC(C)=O)[C@@H]6O5)[C@@H](C)C[C@H](C)[C@H]4[C@]3(C)/C(O)=C3\C(=O)O[C@]4(CC(C=O)=C[C@H](OC(C)=O)[C@H]4/C=C\2C)C3=O)CC1(C)[N+](=O)[O-]` (stereo not given in full) came in with an MIC above 50 µg/mL. Further, the AC3 in assay [2] is 5.7 µM; in assay [3] it was above 10 µM; in assay [4], 1.8 µM; in assay [5], above 10 µM.

In turn, `COCCOCCOCC(=O)O[C@@H]1[C@H]2C=C[C@H]3/C(C)=C/C[C@H](O[C@H]4CC(C)([N+](=O)[O-])C(NC(=O)OC)[C@H](C)O4)/C(C)=C\[C@@H]4[C@@H](O)C=C(C=O)C[C@]45OC(O)=C(C(=O)[C@@]3(C)[C@@H]2[C@@H](C)C[C@@H]1C)C5=O` (stereo not given in full) displayed an MIC in assay [1] above 50 µg/mL. For the same compound, the AC3 in assay [2], in assay [3], in assay [4] and in assay [5] was above 10 µM throughout.

As for `COC(=O)NC1[C@H](C)O[C@@H](O[C@H]2C/C=C(\C)[C@@H]3C=C[C@@H]4[C@@H](O[Si](C)(C)C(C)(C)C)[C@@H](C)C[C@H](C)[C@H]4[C@]3(C)/C(O)=C3\C(=O)O[C@]4(CC(C=O)=C[C@H](O[Si](C)(C)C(C)(C)C)[C@H]4/C=C\2C)C3=O)CC1(C)[N+](=O)[O-]` (stereo not given in full), the MIC in assay [1] was above 50 µg/mL. Besides, the AC3 in assay [2], in assay [3], in assay [4] and in assay [5] was above 10 µM throughout.

`COCCOCCOCC(=O)O[C@@H]1[C@H]2C=C[C@H]3/C(C)=C/C[C@H](O[C@H]4CC(C)([N+](=O)[O-])C(NC(=O)OC)[C@H](C)O4)/C(C)=C\[C@@H]4[C@@H](O[Si](C)(C)C(C)(C)C)C=C(C=O)C[C@]45OC(O)=C(C(=O)[C@@]3(C)[C@@H]2[C@@H](C)C[C@@H]1C)C5=O` (stereo not given in full): the MIC in assay [1] is above 50 µg/mL. Moreover, the AC3 in assay [2] is 9.5 µM; in assay [3], above 10 µM; in assay [4], 3.9 µM; in assay [5] it was 6.4 µM.

Regarding `COC(=O)NC1[C@H](C)O[C@@H](O[C@H]2C/C=C(\C)[C@@H]3C=C[C@@H]4[C@@H](O[C@H]5CCCCO5)[C@@H](C)C[C@H](C)[C@H]4[C@]3(C)/C(O)=C3\C(=O)O[C@]4(CC(C=O)=C[C@H](OC(C)=O)[C@H]4/C=C\2C)C3=O)CC1(C)[N+](=O)[O-]` (stereo not given in full), in assay [1], the MIC came out at 6.3 µg/mL (≈ 6.93 µM). Further, the AC3 in assay [2] worked out at 3.9 µM; in assay [3], 4.9 µM; in assay [4] it was 3.9 µM; in assay [5], 4.8 µM.

`COC(=O)NC1[C@H](C)O[C@@H](O[C@H]2C/C=C(\C)[C@@H]3C=C[C@@H]4[C@@H](OC5C[C@H](O[C@@H]6CCC(OC7C[C@H](O)[C@@H](OC8CC[C@@H](O)C(C)O8)C(C)O7)[C@H](C)O6)[C@@H](OC(C)=O)C(C)O5)[C@@H](C)C[C@H](C)[C@H]4[C@]3(C)C(=O)C3=C(OC)[C@@]4(CC(C=O)=CC(O)[C@H]4/C=C\2C)OC3=O)CC1(C)[N+](=O)[O-]` (stereo not given in full) returned an MIC in assay [1] of 5.2 µg/mL (≈ 3.92 µM). Also, the AC3 in assay [2] was determined as 1 µM; in assay [3], 2.5 µM; in assay [4], 0.8 µM; in assay [5], 1.5 µM.

Compound `COC(=O)NC1[C@H](C)O[C@@H](O[C@H]2C/C=C(\C)[C@@H]3C=C[C@@H]4[C@@H](O)[C@@H](C)C[C@H](C)[C@H]4[C@]3(C)/C(O)=C3\C(=O)O[C@]4(CC(C=O)=C[C@H](O)[C@H]4/C=C\2C)C3=O)CC1(C)[N+](=O)[O-]` (stereo not given in full) gave an MIC in assay [1] above 50 µg/mL. Also, the AC3 in assay [2], in assay [3], in assay [4] and in assay [5] was above 10 µM throughout.

`COC(=O)NC1[C@H](C)O[C@@H](O[C@H]2C/C=C(\C)[C@@H]3C=C[C@@H]4[C@@H](OCc5ccc(OC)cc5)[C@@H](C)C[C@H](C)[C@H]4[C@]3(C)/C(O)=C3\C(=O)O[C@]4(CC(C=O)=C[C@H](OC(C)=O)[C@H]4/C=C\2C)C3=O)CC1(C)[N+](=O)[O-]` (stereo not given in full) registered an MIC in assay [1] above 50 µg/mL. In addition, the AC3 in assay [2] was found to be 3.8 µM; in assay [3], 4.8 µM; in assay [4] it was 7.6 µM; in assay [5] it was 5.8 µM.
